The record followed here is patent US20240246935A1 (Plexium, Inc., priority 2021, published 2024).

Where only a bound is given, the exact number is not on record here.

Experiment [1] relates to IKZF3 (Aiolos). Description: IKZF3 reporter degradation assay (HEK 293T IKZF3-mNeonGreen reporter cell line). The following applies: HEK 293T IKZF3 reporter cells, 24 hour incubation. It is filed as cell-based, human. The text has this: (§1) Polycistronic plasmids were constructed for the mammalian expression of fluorescent reporter fusions of human transcription factors IKZF1 (Ikaros), IKZF2 (Helios), and IKZF3 (Aiolos). The respective protein sequences had their C-terminal end joined to a GGGGS linker repeated three times followed by mNeonGreen, P2A sequence, and mScarlet. The DNA sequences of the open reading frames are as follows:
(§2) IKZF1, IKZF2, and IKZF3 constructs were cloned into the UCOE Hygromycin expression vectors (Millipore Sigma). Reporter constructs were transfected using cationic lipid reagents into adherent HEK 293T cells and stable integrants were selected by treatment with 200 μg/mL hygromycin B. Clonal populations were obtained from the population of stable integrants either by limiting dilution or fluorescence activated cell sorting.
(§3) The clonal stable cell lines were maintained under constant 200 μg/mL hygromycin B selection while being passaged for use in the degradation assays. […] The fluorescence intensity of the IKZF1/2/3-mNeonGreen (FITC channel) and mScarlet (PE channel) reporters were routinely analyzed by flow cytometry to confirm consistent expression levels between experiments.
(§4) The IKZF1/IKZF2/IKZF3 degradation assays were carried out by harvesting the HEK 293T reporter cell lines and resuspending the cells in media formulated for reduced background fluorescence (FluoroBrite; Thermo Fisher). The respective cell lines were seeded at a density of 4000 cells/well into black-walled 384-well optical grade assay tissue culture plates. The cells were incubated overnight at 37° C. to allow for attachment to the assay plate. Dilutions of the compounds were prepared in DMSO from 10 mM compound stocks. The assay plates were treated with appropriate concentrations of the compounds by dispensing the DMSO dilutions in quadruplicate wells with an upper limit of 0.5% final DMSO.
(§5) After 24 hour incubation with the compounds, the assay plates were imaged on an ImageXpress Pico microscopy system (cells maintained at 37° C. during imaging) to obtain the fluorescent readouts. The assay plates were imaged in the FITC and Tetramethylrhodamine (TRITC) channels to obtain the mNeonGreen fluorescence intensity (reporter degradation data) and mScarlet fluorescence intensity (for cell segmentation). 293T-IKZF1 and 293T-IKZF3 reporter cell lines were imaged with exposures of 500 milliseconds (ms) for both FITC and TRITC channels, while the 293T-IKZF2 reporter cell line was imaged with exposures of 1000 ms for FITC and 1250 ms for TRITC. The resulting data was analyzed with Cell Reporter Xpress software using the 2-channel cell scoring analysis with a “percent positive” readout. The TRITC channel was selected for the “nuclei” segmentation with a threshold of 20 while the FITC channel was selected for the “Marker 1” segmentation and a threshold of 100 for the IKZF1 and IKZF3 reporter lines. […] The minimum segmentation width was set to 6 micrometers and the maximum segmentation width was set to 15 micrometers for all cell lines. The DCs calculations were determined by regression to best fit four-parameter logistic curves using GraphPad Prism.

In experiment [2] the test system is IKZF1 (Ikaros). Description: IKZF1 reporter degradation assay (HEK 293T IKZF1-mNeonGreen reporter cell line). The class given is cell-based, human. As to conditions: HEK 293T IKZF1 reporter cells, 24 hour incubation.
Text: as §1, §2, §3, §4, §5

For experiment [3], the target named is GSPT1 (Homo sapiens (Human), UniProt P15170+Q96SW2). Description: GSPT1 reporter degradation assay (HEK293 hGSPT1 HiBiT-tagged cells). It is filed as cell-based. As to conditions: 24 hour incubation. The method, then:
HEK293_hGSPT1_HiBiT-tagged cells were generated using CRISPR-Cas12a technology. Briefly, ˜400,000 HEK293 cells were transiently co-transfected with precomplexed ribonuclear proteins (RNPs) consisting of 80 pmol of crRNA (IDT), 62 pmol of Cas12a protein (IDT), 3 μg of ssODN donor (IDT; AltR® modifications), 78 pmol of electroporation enhancer (IDT), and 200 ng of pMaxGFP (Lonza). The transfection was performed via nucleofection (Lonza, 4D-Nucleofector X-unit) using solution P3 and program CM-130 in a (20 μL) cuvette. Five days post-nucleofection, cells were single-cell-sorted for GFP+(transfected) cells by FACs in 96-well plates and clonally selected. Clones were screened and verified for the desired modification via targeted deep sequencing using gene-specific primers with partial Illumina adapter overhangs as previously described. In brief, clonal cell pellets were harvested, lysed, and used to generate gene-specific amplicons with partial Illumina adapters in PCR #1. Amplicons were indexed in PCR #2 and pooled with other targeted amplicons for other loci to create sequence diversity. Additionally, 10% PhiX sequencing control V3 (Illumina) was added to the pooled amplicon library prior to running the sample on a Miseq Sequencer System (Illumina) to generate paired 2×250 bp reads. Samples were demultiplexed using the index sequences, fastq files were generated, and NGS analysis was performed using CRIS.py. Final clones were authenticated using the PowerPlex fusion system (Promega) and tested negative for mycoplasma by the MycoAlert™Plus mycoplasma detection kit (Lonza).
Editing construct sequences and screening primers are outlined below (sequence from 5′ to 3′). hGSPT1Cas12acrRNA, CAGE635.GSPT1.g1: […] (SEQ ID NO: 4); CAGE635.g1.anti.ssODN: ttcctcacagtattgtgcagggtcatcaagaaaatgctta[…] CAGCCGCTCACgtcCttctctggaaccagtttcagaacttttccaattgcaatggtcttacctagaaatgaaattttaa (HiBiT tag and silent blocking modifications to prevent Cas12a recutting after integration are in upper case) (SEQ ID NO: 5); CAGE635.hGSPT1.DS.F: […] (SEQ ID NO: 6); CAGE635.hGSPT1.DS.R: GTGAA GTAGGCTTCTGCAGTC (SEQ ID NO: 7).
The GSPT1 degradation assay was carried out by harvesting the HEK 293T reporter cell lines and resuspending the cells in media formulated for reduced background fluorescence (FluoroBrite; Thermo Fisher). The respective cell lines were seeded at a density of 8,000 cells/well into white-opaque 384-well optical grade assay tissue culture plates (Greiner 781080-20). The cells were incubated overnight at 37° C. to allow for attachment to the assay plate. Dilutions of the compounds were prepared in DMSO from 10 mM compound stocks. Test compounds were added in a 10-point dilution series (typically 10 μM to […]) using a TECAN D300e Digital Dispenser with an upper limit of 0.5% final DMSO. Plates were centrifuged at 320×g for 2 minutes at room temperature, and subsequently incubated at 37° C.
After 24 hour incubation with the compounds, the plates were allowed to cool to room temperature for 10 minutes. 30 μL of HiBiT lytic buffer+1:50 HiBiT substrate Solution were added to each well. Plates were centrifuged at 320×g for 2 minutes at room temperature and then incubated with shaking at room temperature for 10 minutes covered with foil. Plates were read on a CLARIOstar microplate reader (BMG LabTech), measuring at 450 nm (donor emission) and 610 nm or 630 nm (acceptor emission). The DC50 values were determined by regression to best fit four-parameter logistic curves using GraphPad Prism.
(In general: With HiBiT, luminescence reflects the tagged protein that the partner subunit can reach.)

Experiment [4] has as its system IKZF2 (Helios). Description: IKZF2 reporter degradation assay (HEK 293T IKZF2-mNeonGreen reporter cell line). The class given is cell-based, human. The following applies: HEK 293T IKZF2 reporter cells, 24 hour incubation; for IKZF2 % Degradation @ 1 μM: 1 μM compound. The gist of the method:
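HEK 293T lines stably expressing each IKZF-GGGGS×3-mNeonGreen-P2A-mScarlet reporter, 4000 cells/well in FluoroBrite medium, treated with compound (≤0.5% DMSO) for 24 h at 37 °C. Imaging measured percent mNeonGreen-positive cells, with mScarlet used for segmentation; DC50 from four-parameter logistic fit.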

Chain of GSPT1 (P15170 whole entry): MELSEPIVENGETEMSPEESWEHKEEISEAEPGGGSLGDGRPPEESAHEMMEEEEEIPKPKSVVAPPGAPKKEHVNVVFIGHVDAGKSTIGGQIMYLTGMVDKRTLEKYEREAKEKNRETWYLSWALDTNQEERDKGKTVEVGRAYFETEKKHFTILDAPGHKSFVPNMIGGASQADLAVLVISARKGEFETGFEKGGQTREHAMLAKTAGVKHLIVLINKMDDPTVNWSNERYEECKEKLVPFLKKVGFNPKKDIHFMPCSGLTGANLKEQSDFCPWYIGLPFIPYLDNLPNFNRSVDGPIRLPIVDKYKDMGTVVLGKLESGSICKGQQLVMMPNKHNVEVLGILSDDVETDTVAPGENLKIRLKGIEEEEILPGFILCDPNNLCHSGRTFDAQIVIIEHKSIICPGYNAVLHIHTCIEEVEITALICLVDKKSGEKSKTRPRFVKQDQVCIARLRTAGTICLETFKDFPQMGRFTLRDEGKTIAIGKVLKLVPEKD
Chain of GSPT1 (Q96SW2 whole entry): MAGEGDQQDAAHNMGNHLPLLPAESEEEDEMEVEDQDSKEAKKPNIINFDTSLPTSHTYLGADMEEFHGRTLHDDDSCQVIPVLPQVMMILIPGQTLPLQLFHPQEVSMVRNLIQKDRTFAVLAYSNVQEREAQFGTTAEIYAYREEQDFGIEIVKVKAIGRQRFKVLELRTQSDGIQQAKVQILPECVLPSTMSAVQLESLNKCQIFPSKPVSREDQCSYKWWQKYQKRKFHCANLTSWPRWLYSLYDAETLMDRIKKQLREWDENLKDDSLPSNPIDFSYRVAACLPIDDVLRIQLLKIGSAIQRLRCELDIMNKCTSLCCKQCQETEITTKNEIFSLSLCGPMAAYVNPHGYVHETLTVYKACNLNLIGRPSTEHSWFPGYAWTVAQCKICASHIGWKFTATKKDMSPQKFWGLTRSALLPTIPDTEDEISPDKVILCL
Chain of GSPT1 (Q16531 whole entry partner): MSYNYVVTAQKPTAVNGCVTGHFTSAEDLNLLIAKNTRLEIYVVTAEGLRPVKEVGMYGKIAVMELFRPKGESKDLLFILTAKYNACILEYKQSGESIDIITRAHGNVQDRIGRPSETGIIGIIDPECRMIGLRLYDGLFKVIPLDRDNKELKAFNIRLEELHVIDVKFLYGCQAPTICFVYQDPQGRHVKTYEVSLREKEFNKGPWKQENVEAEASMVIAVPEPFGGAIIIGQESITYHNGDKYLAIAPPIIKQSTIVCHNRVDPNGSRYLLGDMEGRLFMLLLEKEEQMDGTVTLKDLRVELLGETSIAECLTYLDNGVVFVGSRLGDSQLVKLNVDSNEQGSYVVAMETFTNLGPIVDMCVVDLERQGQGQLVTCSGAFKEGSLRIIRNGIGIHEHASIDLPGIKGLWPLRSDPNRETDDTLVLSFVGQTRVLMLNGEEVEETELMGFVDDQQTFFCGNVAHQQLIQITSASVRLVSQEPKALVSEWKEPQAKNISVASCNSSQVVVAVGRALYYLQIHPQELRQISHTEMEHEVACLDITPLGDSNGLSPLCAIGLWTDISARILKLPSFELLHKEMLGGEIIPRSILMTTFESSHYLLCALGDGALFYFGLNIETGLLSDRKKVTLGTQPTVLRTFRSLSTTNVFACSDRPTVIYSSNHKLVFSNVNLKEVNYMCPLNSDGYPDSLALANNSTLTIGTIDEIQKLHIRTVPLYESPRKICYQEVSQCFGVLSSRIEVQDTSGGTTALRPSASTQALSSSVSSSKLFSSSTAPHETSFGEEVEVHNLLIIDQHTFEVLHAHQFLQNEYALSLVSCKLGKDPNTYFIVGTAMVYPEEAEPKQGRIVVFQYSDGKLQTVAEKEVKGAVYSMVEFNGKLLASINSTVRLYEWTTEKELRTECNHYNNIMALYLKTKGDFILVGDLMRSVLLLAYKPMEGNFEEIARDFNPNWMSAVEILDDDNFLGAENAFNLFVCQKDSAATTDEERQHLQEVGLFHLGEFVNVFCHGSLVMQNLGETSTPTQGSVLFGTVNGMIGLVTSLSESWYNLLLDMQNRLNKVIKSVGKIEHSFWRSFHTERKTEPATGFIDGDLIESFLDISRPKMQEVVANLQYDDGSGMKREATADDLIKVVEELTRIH

Turning to `O=C1CCC(N2Cc3cc(O[C@H]4CCCC[C@@H]4N4CC(c5ccc(F)c(F)c5)C4)ccc3C2=O)C(=O)N1` (stereo partly drawn) [Compound 23, 3-(5-(((1S,2S)-2-(3-(3,4-difluorophenyl)azetidin-1-yl)cyclohexyl)oxy)-1-oxoisoindolin-2-yl)piperidine-2,6-dione], the DC50 (usually the midpoint of the concentration-degradation curve) in experiment [1] was more than 30 µM; in experiment [2] it was more than 30 µM; in experiment [3], more than 30 µM; in experiment [4] it was 0.005 µM. The “IKZF2 % Degradation @ 1 μM” value in experiment [4] was determined as 79.2%.

For `O=C1CCC(N2Cc3cc(O[C@H]4CCCC[C@@H]4N4CCC(c5ccccc5)C4)ccc3C2=O)C(=O)N1` (stereo partly drawn) [Compound 1, 3-(1-oxo-5-(((1S,2S)-2-(3-phenylpyrrolidin-1-yl)cyclohexyl)oxy)isoindolin-2-yl)piperidine-2,6-dione], the DC50 is more than 30 µM in experiment [1], more than 30 µM in experiment [2], more than 30 µM in experiment [3] and 0.024 µM in experiment [4]. Further, the “IKZF2 % Degradation @ 1 μM” value in experiment [4] is recorded as 79.9%.
